Data on 63 compounds can be found in patent US10450300B2, “Wnt signaling pathway inhibitors and therapeutic applications thereof” (Suzhou Yunxuan Yiyao Keji Youxian Gongsi, priority 2015, dated 2019).

Bounds are passed on as bounds.

The experiment has as its system Wnt pathway. Description: Wnt pathway Super-top flash (STF) reporter gene assay (primary assay). Type of experiment: cell-based. The following applies: HEK293 STF cells co-cultured 1:1 with L Wnt3A cells; 48 h incubation; inhibition of luminescence signaling. The protocol:
The primary assay is based on Wnt pathway Super-top flash (STF) reporter gene assay:
HEK293 STF stable clones (HEK293 cells stably transfected with “Super-Top Flash” TCF-luciferase reporter plasmid) were kept in complete culture medium (DMEM with 4 mM L-Gln, 1.5 g/L sodium bicarbonate and 4.5 g/L glucose containing 6 μg/mL Blasticidin and 10% FBS). L Wnt3A cells (CRL-2647, ATCC) were kept in DMEM (Gibico) containing 10% FBS (Hyclone). HEK293 STF and L Wnt3A cells were harvested when 90% confluence and cell suspension was mixed with a fixed ratio of 1:1 (HEK293 STF: L Wnt3A). 100 μL/well of mixed cells suspension was added to the 96-well-plate with final cell concentration of 12,000 cells/well and then cultured for an additional 24 hours before adding compounds.
Compounds were diluted in DMSO in sequence and then diluted with DMEM medium. 20 μL medium containing compound was added to the cells according to the pre-setting dose. Cell plates were incubated at 37° C. for an additional 48 hours.
50 μL luciferase solution (Bright-Glo, Promega) was added to each well […] the 48 h incubation. The plates were incubated at room temperature for 5 min under gentle shaking. Luminescence signaling was measured with a plate reader (PHERAstar FS, BMG). The IC50 (potency) of compounds was calculated based on the inhibition of luminescence signaling.
Background: A reporter such as luciferase makes a cellular process visible.
As to `c1cnc2ccc(-c3ccnc(NCc4ccc(-n5ccnc5)cc4)n3)cc2c1` [Compound A-173], the IC50 (commonly the concentration needed to halve the response being measured) was 106 nM.
Under `CCNc1nc(NCc2ccc(-c3ccnc(C)c3)cc2)cc(-c2ccc3ccccc3c2)n1` [Compound A-142] stands 3000 nM; under `Cn1nccc1-c1ccc(CNc2nccc(-c3ccc4ncccc4c3)c2F)cc1` [Compound A-113], 16 nM; under `Cc1cc(-c2ncc(CNc3nccc(-c4ccn5nccc5n4)c3F)cc2C#N)ccn1` [Compound A-96], 0.2 nM.
With `Cc1cc(-c2ccc(CNc3ncnc(N4CCc5ncccc5C4)c3F)cc2)ccn1` [Compound A-26], the IC50 amounted to 1.5 nM.
As for `Cc1cc(-c2ccc(CNc3cc(-c4ccc5ccccc5c4)nc(N4CCCC4)n3)cc2)ccn1` [Compound A-141], the IC50 turned out to be 3000 nM.
For the compound `Cc1cc(-c2ccc(CNc3ncnc(-c4ccc5c(c4)OCCO5)c3F)cc2)ccn1` [Compound A-16], the half-inhibitory concentration (IC50) amounted to 27 nM.
Regarding `Cc1cc(-c2ncc(CNc3ncnc(N4CCS(=O)(=O)CC4)c3F)cc2F)ccn1` [Compound A-79], the IC50 was determined as 416 nM.
As to `Cc1cc(-c2ccc(CNc3ncnc(-c4ccccc4)c3F)cc2)ccn1` [Compound A-17], the IC50 was above 1000 nM.
As to `Cc1cc(-c2ccc(CNc3cc(Cl)nc(N4CCc5ccccc5C4)n3)cc2)ccn1` [Compound A-135], the IC50 turned out to be 3000 nM.
Under `Cc1cc(-c2ccc(CNc3ncnc(-c4ccccc4Cl)c3F)cc2)ccn1` [Compound A-18] stands 480 nM; under `CSc1ncc2c(n1)CCN(c1cc(NCc3ccc(-c4ccnc(C)c4)cc3)ncn1)C2=O` [Compound A-137, 6-(6-(4-(2-methylpyridin-4-yl)benzylamino)pyrimidin-4-yl)-2-(methylthio)-7,8-dihydropyrido[4,3-d]pyrimidin-5(6H)-one], 3000 nM; under `Cc1cc(-c2ncc(CNc3ncnc(-c4ccc5ncsc5c4)c3F)cc2F)ccn1` [Compound A-49], 0.39 nM.
Under `Cc1cc(-c2ccc(CNc3ncnc(-c4ccc5ccccc5c4)c3C)cc2)ccn1` [Compound A-143] stands 2000 nM.
With `Cc1cc(-c2ccc(CNc3ncnc(-c4ccc5ncccc5c4)c3F)cc2)cc[n+]1[O-]` [Compound A-64, 4-(4-((5-fluoro-6-(quinolin-6-yl)pyrimidin-4-ylamino)methyl)phenyl)-2-methylpyridine 1-oxide], the IC50 came out at 16 nM.
Then `COc1cc(CNc2ncnc(N3CCn4nccc4C3)c2F)cnc1-c1ccnc(C)c1` [Compound A-94], with 0.8 nM.
In the case of `O=S1(=O)CCN(c2ccc(CNc3nccc(-c4ccc5ncccc5c4)c3F)cn2)CC1` [Compound A-111], the IC50 worked out at 10 nM.
Take `Cc1cc(-c2ncc(CNc3nccc(-c4ccc5nnccc5c4)c3F)cc2F)ccn1` [Compound A-110]: the IC50 came to 1 nM.
Then `Cc1cc(-c2ccc(CNc3ncnc(-c4ccc5[nH]cnc5c4)c3F)cc2)ccn1` [Compound A-10], with 285 nM; and `Cc1cc(-c2ncc(CNc3ncnc(-c4ccc5ccccc5c4)c3F)cc2C)ccn1` [Compound A-33], with 1.4 nM; and `N#Cc1ccc2cc(CNc3nccc(-c4ccc5ncccc5c4)c3F)cnc2c1` [Compound A-119], with 10 nM.
Turning to `COc1cncc(-c2ccnc(NCc3cnc(-c4ccnc(C)c4)c(C#N)c3)c2F)c1` [Compound A-129], the IC50 came out at 0.4 nM.
Then `Cc1cc(-c2ccc(CNc3nsc(-c4ccc5ncccc5c4)n3)cc2)ccn1` [Compound A-186], with 0.27 nM.
Regarding `Cc1cc(-c2ccc(CNc3nc(N4CCc5ncccc5C4)ncc3F)cc2)ccn1` [Compound A-161], the IC50 came to 3000 nM.
With `Cc1cc(-c2ccc(CNc3ncnc(N4CCc5c(C#N)cccc5C4)c3F)cc2)ccn1` [Compound A-53], the IC50 amounted to 89 nM.
`Cc1cc(-c2ccc(CNc3nccc(N4CCc5ccccc5C4)n3)cc2)ccn1` [Compound A-155]: the IC50 is 229 nM.
Under `Cc1cc(-c2cnc(CNc3nccc(-c4ccc5ncccc5c4)n3)cn2)ccn1` [Compound A-174] stands 2.7 nM; under `Cc1cc(-c2ccc(CNc3ncnc(N4Cc5ccccc5C4)c3F)cc2)ccn1` [Compound A-52], 17 nM; under `N#Cc1ccc2cc(CNc3ncnc(N4CCc5ncccc5C4)c3F)ccc2c1` [Compound A-44], 1 nM.
Then `Cc1cc(-c2ccc(CNc3nccc(N4CCc5ncccc5C4)n3)cc2)ccn1` [Compound A-156], with 12 nM; and `Cc1cc(-c2ccc(CNc3cc(N4CCCC4)nc(N4CCc5ccccc5C4)n3)cc2)ccn1` [Compound A-136], with 4000 nM; and `COc1cc(CNc2nsc(-c3ccc4ncccc4c3)n2)cnc1-c1ccnc(C)c1` [Compound A-193], with 0.07 nM.
Then `Fc1c(-c2ccc3ncccc3c2)ccnc1NCc1ccc(-n2ccnc2)cc1` [Compound A-105], with 5.2 nM; and `Cc1cc(-c2ccc(CNc3ncnc(-c4ccc5nncn5c4)c3F)cc2)ccn1` [Compound A-55], with 3000 nM; and `N#Cc1cnc2cc(CNc3ncnc(-c4ccc5ncccc5c4)c3F)ccc2c1` [Compound A-71], with 0.29 nM.
Regarding `Cn1nc(CNc2ncnc(-c3ccc4ncccc4c3)c2F)ccc1=O` [Compound A-83], the IC50 came to 3000 nM.
Then `Cc1cc(-c2ncc(CNc3ncnc(NCc4cccnc4)c3F)cc2F)ccn1` [Compound A-82], with 338 nM.
On to `Cc1cc(-c2ncc(CNc3ncnc(NCC4CC4)c3F)cc2F)ccn1` [Compound A-81], for which the IC50 amounted to 625 nM.
`Cc1cc(-c2ncc(CNc3nnc(-c4ccc5ncccc5c4)s3)cc2C#N)ccn1` [Compound A-185]: the half-inhibitory concentration (IC50) came to 4.3 nM.
Regarding `O=S1(=O)CCN(c2ccc(CNc3ncnc(-c4ccc5ncccc5c4)c3F)cn2)CC1` [Compound A-68], the IC50 was determined as 16 nM.
As to `N#Cc1ccc2nc(CNc3nccc(-c4ccc5ncccc5c4)c3F)ccc2c1` [Compound A-109], the IC50 turned out to be 10 nM.
Consider `Cc1cc(-c2ccc(CNc3ncnc(N4CCn5c(nnc5C(F)(F)F)C4)c3F)cc2)ccn1` [Compound A-59], for which the IC50 was found to be 230 nM.
Then `Cc1cc(-c2ncc(CNc3nccc(-c4ccc5ncccc5c4)c3F)cn2)ccn1` [Compound A-100], with 0.27 nM; and `Cc1cc(-c2ccc(CNc3nsc(-c4ccc5ncccc5c4)n3)cn2)ccn1` [Compound A-190], with 0.4 nM.
Then `Cc1cc(-c2ncc(CNc3ncnc(N4CCc5ncsc5C4)c3F)cc2F)ccn1` [Compound A-54], with 0.67 nM; and `Cc1cc(-c2ccc(CNc3ncnc(-c4ccc5ncccc5c4)c3F)cn2)ccn1` [Compound A-31], with 1 nM.
On to `Cc1cc(-c2ccc(CNc3ncnc(N4CCc5ncccc5C4)c3F)cn2)ccn1` [Compound A-32], for which the IC50 was determined as 2 nM.
As for `COc1cc(CNc2nsc(-c3cc4cccnc4cn3)n2)cnc1-c1ccnc(C)c1` [Compound A-196, N-((3-methoxy-2′-methyl-2,4′-bipyridin-5-yl)methyl)-5-(1,7-naphthyridin-6-yl)-1,2,4-thiadiazol-3-amine], the 50% inhibitory concentration (IC50) was found to be 0.78 nM.
`Cc1cc(-c2ccc(CNc3ncnc(-c4ccc5nccnc5c4)c3F)cc2)ccn1` [Compound A-8]: the IC50 came out at 1.5 nM.
Consider `Cc1cc(-c2ccc(CNc3ncnc(-c4ccc5ncccc5c4)n3)cc2)ccn1` [Compound A-160], for which the IC50 came out at 6.7 nM.
Under `Cc1cc(-c2ncc(CNc3ncnc(N4CCn5nnnc5C4)c3F)cc2F)ccn1` [Compound A-93] stands 40 nM; under `Cc1cc(-c2ncc(CNc3nccc(-c4ccc5ncccc5n4)c3F)cc2C#N)ccn1` [Compound A-126], 0.04 nM; under `Cc1cc(-c2ncc(CNc3ncnc(N4CCNC(=O)C4)c3F)cc2F)ccn1` [Compound A-80], 768 nM.
Take `N#Cc1ccc2cc(CNc3ncnc(N4CCc5ncccc5C4)c3F)cnc2c1` [Compound A-76]: the 50% inhibitory concentration (IC50) was 1.3 nM.
In the case of `Cc1cc(-c2ncc(CNc3ncnc(-c4cc5cccnc5cn4)c3F)cc2C#N)ccn1` [Compound A-86], the half-inhibitory concentration (IC50) stood at 0.34 nM.
Then `Cc1cc(-c2ncc(CNc3nsc(-c4cc5cccnc5cn4)n3)cc2F)ccn1` [Compound A-195], with 0.84 nM; and `N#Cc1ccc2cc(CNc3ncnc(-c4ccc5ncccc5c4)c3F)cnc2c1` [Compound A-75], with 0.52 nM.
Under `N#Cc1cnc2cc(CNc3nccc(-c4ccc5ncccc5c4)n3)ccc2c1` [Compound A-179, 7-((4-(quinolin-6-yl)pyrimidin-2-ylamino)methyl)quinoline-3-carbonitrile] stands 500 nM; under `Fc1c(NCc2ccc(-c3ccncc3)cc2)ncnc1-c1ccc2ccccc2c1` [Compound A-38], 5 nM.
Turning to `Cc1cc(-c2ncc(CNc3nccc(-c4ccc5ncccc5c4)c3F)cc2C#N)ccn1` [Compound A-99], the IC50 is 0.11 nM.
With `Cc1cc(-c2ccc(CNc3ccnc(-c4ccc5ccccc5c4)n3)cc2)ccn1` [Compound A-151], the IC50 is 2000 nM.
Then `Cc1cc(-c2ncc(CNc3ncnc(-c4ccc5ncccc5c4)c3F)cc2F)ccn1` [Compound A-36], with 0.5 nM; and `CSc1nc(NCc2ccc(-c3ccnc(C)c3)cc2)cc(-c2ccc3ccccc3c2)n1` [Compound A-140], with 3000 nM.
